Measurements reported in patent US20080318880A1, “Neoadjuvant treatment of Breast Cancer” (The University of Manitoba, priority 2002, published 2008).
“And” between values parts separate entries of the source, which are not always exact repeats. Equal values may be shown once.

System: inflammatory or T3 to T4 breast cancer
Test: Phase II clinical trial of neoadjuvant DPPE plus anthracycline/taxane chemotherapy
Type: in vivo, human
Procedure: In the neoadjuvant treatment of inflammatory or T3 to T4 breast cancer, the diphenyl compound preferably is used in an amount of about 3 to about 10 mg/kg of patient, administered intravenously over a period of about 30 to about 90 minutes prior to administration of the chemotherapeutic agents and continuing for the period of administration of the chemotherapy agent. In the specific Phase II clinical trial described herein, there was employed 6 mg/kg of DPPE in the form of its hydrochloride salt, administered intravenously as an aqueous solution thereof over 80 minutes, with the last twenty minutes being accompanied by infusion of the chemotherapeutic agents, followed by the intravenous administration of an aqueous solution at a dose of 2.5 mg/kg of DPPE for 180 minutes accompanied by the infusion of Taxol® or for 60 minutes accompanied by the infusion of Taxotere®. The chemotherapy agents which are employed herein preferably are used in a total amount of 75 to about 225 mg/M^2 of patient consistent with the identity of the chemotherapy agent. The chemotherapeutic agents may be administered in an amount of about 50 to about 60 mg/M^2 of patient for doxorubicin or epirubicin, about 175 to about 225 mg/M^2 of Taxol® and about 75 to about 100 mg/M^2 of Taxotere®. In the specific Phase II clinical trial described herein, there was employed 50 mg/M^2 of doxorubicin or epirubicin, and 175 mg/M^2 of Taxol® or 75 mg/M^2 of Taxotere®, administered over the last 20 minutes of infusion of the DPPE solution and over a further 180 minutes for Taxol® or 60 minutes for Taxotere®, accompanied by infusion of a 2.5 mg/kg of DPPE solution. As noted above, patients with inflammatory breast cancer or T3 to T4 breast cancer are subjected to a number of cycles of chemotherapy at predetermined intervals to reduce the size of the tumor to an operable size. The number of cycles for each patient is generally about 5 to about 8 cycles, with about 21 to about 28 days between each cycle. In the Phase II clinical trial, patients were subjected to 6 cycles at time intervals of 21 days. A Phase II clinical trial was carried out in which patients (N=8) with inflammatory (N=7) and T3 to T4 (N=1) breast cancer were treated with a combination of DPPE and epirubicin (EPI)/Taxol® (N=5), a combination of DPPE and doxorubicin (DOX)/Taxol® (N=2) and DPPE and a combination of DPPE and epirubicin/Taxotere® (N=1). DPPE was administered at a dose of […] over 80 minutes with a combination of epirubicin or doxorubicin at a dose of 50 mg/M^2 and Taxol® at a dose of 175 mg/M^2 or Taxotere® at a dose of 75 mg/M^2 over the last 20 minutes and during a further 180 minutes for Taxol® or 60 minutes for Taxotere®, at a dose of 2.5 mg/kg. The treatment was repeated at 21 day intervals for 6 cycles. The eight patients with inflammatory or T3 to T4 breast cancer had no previous chemo- or radiotherapy. When the chemotherapy cycles were complete, the cancerous tissue was removed and the patients observed. The results obtained are shown in Table I. In this Table, the abbreviation TTP stands for time to progression and the abbreviation OS stands for overall survival. […] This patient remains disease-free at 55+ months.

[1] = 8 patients pooled: 5 DPPE/EPI/TAXOL, 2 DPPE/DOX/TAXOL, 1 DPPE/EPI/TAXOTERE
[2] = number of patients of 8, first figure of cell, same regimens
[3] = number of patients of 8, second figure of cell, marked *, same regimens

## CCN(CC)CCOc1ccc(Cc2ccccc2)cc1 [DPPE, N,N-diethyl-2-[4-(phenylmethyl)-phenoxy]ethanamine]
[1]
  OS (overall survival), median: 43+ mos.
  TTP (time to progression), median: 21 mos.
DPPE along with doxorubicin/epirubicin and Taxol/Taxotere
  overall outcome of trial: effective neoadjuvant treatment which lead to long term survival post surgery
Number of patients of 8, first figure of cell (not marked as pathological criteria), DPPE 6 mg/M^2 over 80 min + epirubicin or doxorubicin 50 mg/M^2 + Taxol 175 mg/M^2 or Taxotere 75 mg/M^2, 6 cycles at 21 day intervals
  Response CR: 4
[2]
  Response NR: 1
  Response PR: 3
Number of patients of 8, second figure of cell, marked * (pathological criteria), same regimens
  Response CR, pathological criteria: 2
[3]
  Response NR, pathological criteria: 2
  Response PR, pathological criteria: 4
Third patient, only high-grade cells on cytology
  response of individual patient: clinical/pathological complete remission
Third patient, with complete remission
  disease-free time of individual patient: ≥ 55 months
Two long-term survivors with mixed high-grade tumors pre-treatment
  high-grade tumor component post-surgery: no high-grade component post-surgery
Two patients with mixed high-grade tumors pre-treatment
  survival of individual long-term survivors: ≥ 45 months and ≥ 53 months
